Source: US10450585B2, “Delivery methods and compositions for nuclease-mediated genome engineering” (Sangamo Therapeutics, Inc., priority 2015, dated 2019)

Assays:
[1] = test system: human patient-derived primary hepatocytes; assay: AAV2/6 ZFN transduction of primary hepatocytes with PDGFR inhibitor; % indels; assay type: cell-based; conditions: 9 μM
Protocol: For human hepatocytes, 48-well cell culture dishes were purchased pre-coated with collagen (Life Technologies). Plates were incubated for 1 hour at 37° C. Thawing/plating media was prepared by combining 18 mL InVitroGRO CP medium (BioreclamationIVT) and 400 μL Torpedo antibiotic mix (Celsis In Vitro Technologies). Once the plates were prepared, the plate-able human hepatocytes (Lot# AKB), were transferred from the liquid nitrogen vapor phase directly into the 37° C. water bath and thawed under gently stirring. The cells were transferred directly into a 50 ml conical tube containing 5 mL of pre-warmed thawing/plating medium. To retrieve all the cells, the vial was washed with 1 mL of thawing/plating medium, which was added to the cells. Following resuspension of the cells, a small aliquot (20 μL) was removed to perform a cell count and to determine cell viability using trypan blue solution (1:5; Corning, Cat#25-900-C1). The cells were then centrifuged at 75×g for 5 minutes, the supernatant was removed and the cells were resuspended at 1e6 cells/mL. Cells were seeded at 3e5 cells/well in the coated 48-well plates. Cells were then incubated in a 37° C./5% CO2 incubator.
One day after the cells were plated, cells were switched to HCM maintenance medium (Lonza, HBM and HCM SingleQuots). […] Genomic DNA was extracted and analyzed by deep sequencing (MiSeq) at the albumin locus.

[2] = test system: Hep3B (human hepatoma cell line) cells; assay: AAV2/6 delivery of albumin ZFNs to Hep3B cells after growth factor receptor inhibitor pre-incubation; % indels by deep sequencing; assay type: cell-based; conditions: serum-free pre-incubation, AAV2/6 albumin ZFNs MOI 3e4 vg/cell
Protocol: In order to test the relative contribution of co-receptors to AAV transduction, inhibitors against epidermal growth factor receptor (EGFR), hepatocyte growth factor receptor (HGFR), fibroblast growth factor receptor (FGFR) and platelet-derived growth factor receptor (PDGFR) were used prior to in vitro AAV2/6 transduction experiments in Hep3B (human hepatoma cell line) cells using zinc-finger nucleases (ZFNs) targeting the human albumin locus. Hep3B cells were plated at a density of 1×10^5 cells per well in a 48-well tissue culture plate in 300 μL complete growth media the day before transduction with AAV2/6. On the morning of transduction, the cells were washed three times with serum-free media and incubated in the serum-free media for three hours. Growth factor receptor inhibitors were added to the wells and incubated for one hour. AAV2/6 particles to deliver ZFNs targeted to the albumin locus were then added to the wells. After three hours, serum was added to the wells to a final concentration of 10%. The cells were harvested on day 4 post-transduction. Genomic DNA was extracted and analyzed by deep sequencing (MiSeq) at the albumin locus. The growth factor receptor inhibitors used are shown below in Table 1, and they were used in the experiment in the concentrations indicated in FIG. 3, where each inhibitor is labeled by its target.

SMILES | indels detected as compared to no inhibitor [1] | AAV transduction compared to control (% indels) [2]
CC1(COc2ccc3c(c2)ncn3-c2ccc3cccc(N4CCC(N)CC4)c3n2)COC1 [Crenolanib] | large increase | 
COc1cc2ncnc(Nc3ccc(F)c(Cl)c3)c2cc1OCCCN1CCOCC1 [EGFRi, Gefitinib] |  | mild inhibition
CCN1CCN(c2ccc(Nc3cc(N(C)C(=O)Nc4c(Cl)c(OC)cc(OC)c4Cl)ncn3)cc2)CC1 [FGFRi, BGJ398] |  | mild stimulation
Cc1[nH]c(/C=C2\C(=O)Nc3ccc(S(=O)(=O)N(C)c4cccc(Cl)c4)cc32)c(C)c1C(=O)N1CCN(C)CC1 [HGFRi, SU11274] |  | mild stimulation
